A short description of data set [1]: Storage stability of pseudopolymorphic forms (XRPD). In kind it is physicochemical. The following applies: same storage conditions as table 15.
The nature of data set [2]: Phase I, single inhaled, inhaled + charcoal, oral and intravenous doses in healthy male subjects: plasma concentrations, lung deposition. In kind it is in vivo, human. On the procedure:
Healthy white male subjects, aged 18 to 45 years with a body mass index (BMI) above/equal 18.5 and below/equal 29.9 kg/m^2 were treated in a clinical phase I study with a single inhaled dose of 1000 μg (nominal dose), a single inhaled dose of 1000 μg (nominal dose)+charcoal block, a single oral dose of 1000 μg and a single infusion over 2 h of 100 μg of example 4. As the bioavailability of an intravenous application is generally 100% per definition and therefore higher than in case of an oral or […], the intravenous dose was carefully selected to be lower than the oral and inhaled dose to avoid higher plasma concentration resulting from a high IV dose and potential side effect, e.g. reduction in blood pressure or syncope. Therefore, 100 μg was selected for the IV dose in this investigation. Seven days washout period between treatments was applied. The subjects swallowed a solution for oral administration (20 ml comprising 1000 μg see under C-2, table 49a). The subjects received a solution as a single infusion over 2 hours (2 ml comprising 100 μg see under C-2 table 49a). The subjects inhaled the drug powder from capsules (see under C-1, tables 17 and 20) inserted into a handheld inhalation device by one deep inhalative breath. After inhalation of the dry powder formulation of this drug, some parts of the nominal dose remain in the capsule and the device, the dose which reaches the body at the mouthpiece is called the emitted dose. The emitted dose can be calculated/determined as followed: nominal dose−(remains in the capsule+remains in the device). After inhalation of the dry powder, one part of the emitted dose enters the gastrointestinal tract (GT and is called the oral part of the emitted dose, the other part of the emitted dose which reaches the lung through the respiratory airways is called the lung dose and represents the lung deposited dose. As the lung is the target organ of the effect, the lung deposited dose must be quantified. Lung deposition can be indirectly estimated, by determining the part of the nominal dose which reaches the GIT and the remains in the capsule and the device. To investigate and determine lung deposition, the following investigations were done (see also FIG. 59): • 1—Inhaled application of a single dose of 1000 μg of the dry powder. • 2—Inhaled application of a single dose of 1000 μg of the dry powder in combination with oral administration of charcoal block. The charcoal block capped the oral absorption of GIT part of the dose, as example 4 completely adsorbed to charcoal block. This implies that the concentrations of example 4 measured reach the systemic circulation via the lung. • 3—Administration of a single oral dose of 1000 μg example 4 to determine the oral absorption. • 4—Administration of a 2 h infusion of example 4 to investigate the elimination.

Data set [3] deals with anesthetized PAH minipigs. As to the kind of experiment: PAH minipig, intratracheal application of dry powder formulations and of different hydrates (PAP, BP). The following applies: dry powder lactose formulation, i.t. In kind it is in vivo, Göttingen Minipigs. The method, then: (§1) Healthy Göttingen Minipigs® Ellegaard (Ellegaard, Denmark) of both sexes and having a weight of 2-6 kg were used. The animals were sedated by i.m. administration of about 25 mg/kg ketamine and about 10 mg/kg azaperone. Anaesthesia was initiated by i.v. administration of about 2 mg/kg ketamine and about 0.3 mg/kg midazolam. Maintenance of anaesthesia was by i.v. administration of about 7.5-30 mg/kg/h ketamine and about 1-4 mg/kg/h midazolam (rate of infusion 1-4 ml/kg/h) and about 150 μg/kg/h pancuronium bromide (for example Pancuronium-Actavis). After intubation, the animals were ventilated by the ventilator at a constant respiratory volume (10-12 ml/kg, 35 breaths/min; Avea®, Viasys Healthcare, USA, or Engström Carestation, GE Healthcare, Freiburg, Germany) such that an end-tidal CO2 concentration of about 5% was achieved. Ventilation was performed with room air, enriched with about 40% oxygen (normoxia). For the measurement of the haemodynamic parameters such as pulmonary arterial pressure (PAP), blood pressure (BP) and heart rate (HR), catheters were inserted into the carotid artery to measure the blood pressure, and a Swan-Ganz® catheter was introduced in a flow-directed manner via the jugular vein into the pulmonary artery. The haemodynamic signals were recorded and evaluated by means of pressure transducers (Combitransducer, B. Braun, Melsungen, Germany)/amplifiers and Ponemah® as data acquisition software.
About 0.3-0.75 μg/kg/min of 9,11-didesoxy-9α,11α-epoxymethanoprostaglandine F2α (U-44069; Sigma, cat. no. D0400, or Cayman Chemical Company, cat. no. 16440), dissolved in physiological saline, were infused to achieve an increase of the mean pulmonary arterial pressure to values of over 25 mmHg.
After characterization of the effects of comparative example 11 after nebulization of compound solutions, in a further step the effects of crystalline forms of comparative example 11, e.g. sesquihydrate, e.g. example 6e on PAP and BP after inhaled application of different dry powder lactose formulations (table 52) were studied in anesthetized PAH minipigs.
As reference pure Lactose vehicle was applied in the beginning of each experiment.

Data set [4] has as its system conscious hypoxia challenged dog. As to the kind of experiment: Conscious hypoxia challenged dog model, duration of action (PAP reduction). In kind it is in vivo.
For data set [5], the system named is anesthetized thromboxane A2 challenged PAH-minipig. As to the kind of experiment: Haemodynamics in the anesthetized thromboxane challenged minipig (PAH minipig), inhaled nebulized solution: lung selectivity and duration of action. It counts as in vivo, Göttingen Minipigs. The method, then:
as §1
After the instruments have been placed into the animals, continuous infusion of a thromboxane A2 analog was initiated to increase the pulmonary arterial pressure. About 0.3-0.75 μg/kg/min of 9,11-didesoxy-9α,11α-epoxymethanoprostaglandine F2α (U-44069; Sigma, cat. no. D0400, or Cayman Chemical Company, cat. no. 16440), dissolved in physiological saline, were infused to achieve an increase of the mean pulmonary arterial pressure to values of over 25 mmHg. 30 minutes after the start of the infusion, a plateau was reached, and the experiment was started.
The test substances were administered as i.v. infusion or by inhalation. For the preparation of the solution for inhalation, the following procedure was adopted: For an animal having a weight of 4 kg, to prepare the stock solution (300 μg/kg), 1.2 mg of the test compound were weighed out and dissolved in a total volume of 3 ml (1% DMSO, 99% 0.2% strength citric acid solution, 1 n aqueous sodium hydroxide solution to adjust the pH to 8). The solution was then diluted to the concentration employed using 0.2% strength citric acid which had been adjusted to pH 8 beforehand with aqueous sodium hydroxide solution. In each test, 3 ml of the solution of test compound per 4 kg animal were nebulized in the inhalation arm of the respiratory circuit using the Aeroneb® Pro nebulizer system. The mean nebulization time was about 7 min from the start of the nebulization.
With respect to a prediction of the duration of action for human studies comparative example 11 was compared in the PAH minipig model after inhaled application to Ventavis® (=Iloprost, 10 μg/kg nominal dose), which we used as a clinical reference. […] Therefore, the duration of action is more than 6 times longer compared to Ventavis in this preclinical animal model.

The structures appear in SMILES notation.

In the case of `O=C(O)c1ccc(CCN(CCc2ccccc2OCc2ccc(-c3ccc(C(F)(F)F)cc3)cc2Cl)[C@H]2CCCc3nc(C(=O)O)ccc32)cc1` [Example 4, (5S)—{[2-(4-Carboxyphenyl)ethyl][2-(2-{[3-chloro-4′-(trifluoromethyl)biphenyl-4-yl]methoxy}phenyl)-ethyl]amino}-5,6,7,8-tetrahydroquinoline-2-carboxylic Acid as Monohydrate I], in data set [1], the storage stability entry is recorded as “stable”. The absolute bioavailability in data set [2] (dry powder inhaled with charcoal) stood at 16.3%; in data set [2] (dry powder inhaled without charcoal), 18.8%. Besides, the elimination half-life in data set [2] (inhaled 1000 μg with charcoal) is 16.1 h; in data set [2] (inhaled 1000 μg without charcoal), 15.1 h; in data set [2] (intravenous, 100 μg infusion over 2 h), 0.26 h; in data set [2] (oral, 1000 μg) it was 4.43 h.

Regarding `O=C(O)c1ccc(CCN(CCc2ccccc2OCc2ccc(-c3ccc(C(F)(F)F)cc3)cc2Cl)[C@H]2CCCc3nc(C(=O)O)ccc32)cc1` [Comparative example 11, (5S)-5-{[2-(4-carboxyphenyl)ethyl][2-(2-{[3-chloro-4′-(trifluoromethyl)[biphenyl]-4-yl]methoxy}phenyl)ethyl]amino}-5,6,7,8-tetrahydroquinoline-2-carboxylic Acid], the MED in data set [3] was less than 7.5 µg/kg. For the same compound, the “duration of effect (PAP reduction)” value in data set [4] is “up to 17 hrs”. For the same compound, in data set [5] (5% reduction in PAP, nebulized), the “minimal effective nominal dose” value stood at 3 µg/kg. Moreover, the “dose dependent efficacy (PAP) during observation interval” value in data set [5] (all doses (10, 30 and 100 μg/kg nominal dose), inhaled) is 240 min. Besides, the “selective PAP effect, duration of maximal effect” value in data set [5] (inhaled application, whole observation interval) is listed as 240 min. Also, in data set [5] (minipig model, inhaled), the duration of action result is recorded as “sufficient duration of action”. In data set [5] (nebulized solution), the “time of maximal effect on PAP after inhaled application” value is listed as “about 90 min”.

Values taken from patent US20250281480A1, “PHARMACEUTICAL DRY POWDER INHALATION FORMULATION” (Bayer Aktiengesellschaft, priority 2021, published 2025).
